Source: patent US12595288B2 (priority 2020, dated 2026)
Like-named read-outs stand apart in the source and are kept apart here. Bridge positions count the residues as written; N and C are the ends. Ends that are not written are not given here. Peptide text beside a SMILES is read from it.

What was measured:
Cathepsin G = Cathepsin G (Homo sapiens, UniProt P08311); assay: biochemical
Chymase = Chymase (Homo sapiens, UniProt P23946); assay: biochemical
V2R versus V1a = details: cited from earlier work
Caspase 6 = Caspase 6 (Homo sapiens, UniProt P55212); assay: biochemical
Caspase 7 = Caspase 7 (Homo sapiens, UniProt P55210); format: biochemical; details: read-out: Compound IC50
Cathepsin B = Cathepsin B (Homo sapiens, UniProt P07858); format: biochemical; details: read-out: Compound IC50
Cathepsin C = Cathepsin C (Homo sapiens, UniProt P53634); assay: biochemical
Cathepsin H = Cathepsin H (Homo sapiens, UniProt P09668); format: biochemical; details: read-out: Compound IC50
Cathepsin L = Cathepsin L (Homo sapiens, UniProt P07711); format: biochemical; details: read-out: Compound IC50
Cathepsin S = Cathepsin S (Homo sapiens, UniProt P25774); format: biochemical; details: read-out: Compound IC50
Cathepsin V = Cathepsin V (Homo sapiens, UniProt O60911); format: biochemical; details: read-out: Compound IC50
Papain = Papain (Carica papaya, UniProt P00784); assay: biochemical
Caspase 1 = Caspase 1 (Homo sapiens, UniProt P29466); assay: biochemical
Caspase 2 = Caspase 2 (Homo sapiens, UniProt P42575); assay: biochemical
Caspase 4 = Caspase 4 (Homo sapiens, UniProt P49662); format: biochemical; details: read-out: Compound IC50
Caspase 5 = Caspase 5 (Homo sapiens, UniProt P51878); assay: biochemical
Caspase 8 = Caspase 8 (Homo sapiens, UniProt Q14790); format: biochemical; details: read-out: Compound IC50
Caspase 9 = Caspase 9 (Homo sapiens, UniProt P55211); assay: biochemical
Caspase 10 = Caspase 10 (Homo sapiens, UniProt Q92851); assay: biochemical
Caspase 11 = Caspase 11 (Mus musculus, UniProt P70343); assay: biochemical
Kallikrein 1 = Kallikrein 1 (Homo sapiens, UniProt P06870); assay: biochemical
Proteinase A = Proteinase A (Bacillus licheniformis, UniProt P00780); assay: biochemical; set-up: species or system Bacillus Iicheniformis
[1] = target: human Arginine Vasopressin Receptor 2A (AVPR2A) (Homo sapiens, UniProt P30518); assay: cell-based
Chymotrypsin = Chymotrypsin (Bos taurus, UniProt P00766); assay: biochemical; set-up: species or system Bovine
Elastase = Elastase (Homo sapiens, UniProt P08246); assay: biochemical
Kallikrein 5 = Kallikrein 5 (Homo sapiens, UniProt Q9Y337); assay: biochemical
Kallikrein 7 = Kallikrein 7 (Homo sapiens, UniProt P49862); assay: biochemical
Matriptase 2 = Matriptase 2 (Homo sapiens, UniProt Q8IU80); assay: biochemical
Plasma Kallikrein = Plasma Kallikrein (Homo sapiens, UniProt P03952); assay: biochemical
Trypsin = Trypsin (Bos taurus, UniProt P00760); assay: biochemical; set-up: species or system Bovine
Tryptase b2 = Tryptase b2 (Homo sapiens, UniProt P20231); assay: biochemical
Tryptase g1 = format: biochemical, Human; details: read-out: Compound IC50
[2] = system: 156 other GPCRs, including V1aR, V1bR and OTR; details: cited from earlier work
[3] = system: DDAVP-induced hyponatremia in Sprague-Dawley rats; details: rat, in vivo
FXa = FXa (Homo sapiens, UniProt P00742); format: biochemical; details: read-out: Compound IC50
Kallikrein 12 = Kallikrein 12 (Homo sapiens, UniProt Q9UKR0); format: biochemical; details: read-out: Compound IC50
Kallikrein 13 = Kallikrein 13 (Homo sapiens, UniProt Q9UKR3); format: biochemical; details: read-out: Compound IC50
Kallikrein 14 = Kallikrein 14 (Homo sapiens, UniProt Q9P0G3); format: biochemical; details: read-out: Compound IC50
Plasmin = Plasmin (Homo sapiens, UniProt P00747); format: biochemical; details: read-out: Compound IC50
Thrombin A = Thrombin A (Homo sapiens, UniProt P00734); format: biochemical; details: read-out: Compound IC50
Urokinase = Urokinase (Homo sapiens, UniProt P00749); format: biochemical; details: read-out: Compound IC50
[4] = target: human vasopressin-2 receptor (V2R) (Homo sapiens, UniProt P30518); assay: biochemical; format: binding
Sequence of human vasopressin-2 receptor (V2R) (P30518 whole entry): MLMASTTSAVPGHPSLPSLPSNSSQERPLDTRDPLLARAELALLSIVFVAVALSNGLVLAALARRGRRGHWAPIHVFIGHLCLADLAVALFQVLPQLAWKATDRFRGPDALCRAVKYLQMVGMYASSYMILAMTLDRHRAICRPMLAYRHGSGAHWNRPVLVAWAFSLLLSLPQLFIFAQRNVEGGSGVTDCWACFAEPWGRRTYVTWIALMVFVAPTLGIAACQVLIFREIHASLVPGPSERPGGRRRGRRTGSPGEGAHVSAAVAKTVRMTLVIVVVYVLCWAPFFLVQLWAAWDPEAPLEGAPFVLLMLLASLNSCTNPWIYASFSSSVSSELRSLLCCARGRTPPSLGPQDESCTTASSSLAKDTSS

Sequence of Matriptase 2 (Q8IU80 78-811): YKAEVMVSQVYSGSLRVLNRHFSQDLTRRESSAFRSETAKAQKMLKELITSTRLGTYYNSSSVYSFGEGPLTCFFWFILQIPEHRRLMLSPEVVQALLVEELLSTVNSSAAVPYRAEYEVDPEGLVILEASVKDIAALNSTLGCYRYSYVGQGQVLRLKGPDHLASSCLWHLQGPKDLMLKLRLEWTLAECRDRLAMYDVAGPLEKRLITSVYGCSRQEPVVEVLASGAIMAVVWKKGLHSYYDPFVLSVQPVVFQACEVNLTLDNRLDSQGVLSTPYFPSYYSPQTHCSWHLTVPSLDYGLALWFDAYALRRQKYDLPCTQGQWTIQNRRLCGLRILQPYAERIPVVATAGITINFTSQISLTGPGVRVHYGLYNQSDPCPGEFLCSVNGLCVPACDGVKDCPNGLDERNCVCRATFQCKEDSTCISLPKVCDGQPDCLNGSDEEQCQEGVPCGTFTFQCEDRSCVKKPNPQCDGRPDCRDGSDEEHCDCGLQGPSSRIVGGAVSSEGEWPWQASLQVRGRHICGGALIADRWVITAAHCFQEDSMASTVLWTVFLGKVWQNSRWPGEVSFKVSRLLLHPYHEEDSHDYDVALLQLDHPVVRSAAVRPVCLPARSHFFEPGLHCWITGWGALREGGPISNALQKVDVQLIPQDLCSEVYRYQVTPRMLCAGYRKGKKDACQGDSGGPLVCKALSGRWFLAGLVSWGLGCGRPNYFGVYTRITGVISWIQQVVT
Sequence of Caspase 10 (Q92851-2 with tags, fused parts or gaps limits assumed): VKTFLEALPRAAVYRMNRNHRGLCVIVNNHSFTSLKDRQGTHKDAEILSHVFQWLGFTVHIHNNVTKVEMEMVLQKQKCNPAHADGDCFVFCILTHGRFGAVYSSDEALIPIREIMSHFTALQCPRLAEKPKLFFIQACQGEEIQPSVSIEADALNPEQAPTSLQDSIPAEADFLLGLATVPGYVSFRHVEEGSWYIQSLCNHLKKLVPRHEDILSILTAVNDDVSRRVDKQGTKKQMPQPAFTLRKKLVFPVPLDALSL
Sequence of Caspase 9 (P55211 131-416): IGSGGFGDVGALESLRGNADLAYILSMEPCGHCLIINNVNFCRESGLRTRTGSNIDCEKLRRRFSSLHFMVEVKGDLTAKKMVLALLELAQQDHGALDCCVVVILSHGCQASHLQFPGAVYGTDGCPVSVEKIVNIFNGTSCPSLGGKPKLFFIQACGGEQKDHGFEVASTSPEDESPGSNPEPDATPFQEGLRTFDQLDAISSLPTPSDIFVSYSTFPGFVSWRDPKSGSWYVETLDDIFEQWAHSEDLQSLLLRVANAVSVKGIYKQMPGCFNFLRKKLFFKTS
Sequence of Trypsin (P00760 24-246): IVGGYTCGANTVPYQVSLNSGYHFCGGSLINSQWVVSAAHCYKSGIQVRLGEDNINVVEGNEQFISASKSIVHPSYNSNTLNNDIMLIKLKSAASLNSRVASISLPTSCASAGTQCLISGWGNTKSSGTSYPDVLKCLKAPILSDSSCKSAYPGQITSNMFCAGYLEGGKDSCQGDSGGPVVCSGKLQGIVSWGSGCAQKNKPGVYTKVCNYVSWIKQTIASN
Sequence of Elastase (P08246 30-247): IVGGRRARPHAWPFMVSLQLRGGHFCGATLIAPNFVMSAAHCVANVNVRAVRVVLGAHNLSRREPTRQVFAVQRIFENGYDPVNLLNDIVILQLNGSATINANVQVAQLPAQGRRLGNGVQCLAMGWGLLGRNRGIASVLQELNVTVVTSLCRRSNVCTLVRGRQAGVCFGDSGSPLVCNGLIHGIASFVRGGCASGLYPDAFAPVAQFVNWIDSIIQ
Sequence of Kallikrein 5 (Q9Y337 67-293): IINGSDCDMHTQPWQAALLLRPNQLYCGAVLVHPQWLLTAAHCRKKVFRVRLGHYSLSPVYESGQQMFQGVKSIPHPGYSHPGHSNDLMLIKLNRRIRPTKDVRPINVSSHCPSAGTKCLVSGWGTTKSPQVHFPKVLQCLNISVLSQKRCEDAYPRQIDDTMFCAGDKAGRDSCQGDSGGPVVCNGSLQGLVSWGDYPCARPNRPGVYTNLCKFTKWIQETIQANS
Sequence of Caspase 11 (P70343 102-373): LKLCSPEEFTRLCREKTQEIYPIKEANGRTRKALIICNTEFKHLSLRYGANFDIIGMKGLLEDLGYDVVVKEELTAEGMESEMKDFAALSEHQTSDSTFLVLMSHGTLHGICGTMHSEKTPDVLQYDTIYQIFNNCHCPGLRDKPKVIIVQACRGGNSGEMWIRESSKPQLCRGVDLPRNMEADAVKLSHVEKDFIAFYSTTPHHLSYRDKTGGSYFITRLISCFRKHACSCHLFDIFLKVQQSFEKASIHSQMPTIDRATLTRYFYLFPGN
Sequence of Tryptase b2 (P20231 31-275): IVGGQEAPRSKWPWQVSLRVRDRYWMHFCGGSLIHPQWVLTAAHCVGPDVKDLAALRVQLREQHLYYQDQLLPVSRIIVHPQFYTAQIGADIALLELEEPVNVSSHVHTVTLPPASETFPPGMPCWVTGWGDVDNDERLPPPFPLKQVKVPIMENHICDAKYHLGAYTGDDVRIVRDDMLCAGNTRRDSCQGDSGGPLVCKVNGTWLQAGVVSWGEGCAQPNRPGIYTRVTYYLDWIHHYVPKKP
Sequence of Plasma Kallikrein (P03952 20-390): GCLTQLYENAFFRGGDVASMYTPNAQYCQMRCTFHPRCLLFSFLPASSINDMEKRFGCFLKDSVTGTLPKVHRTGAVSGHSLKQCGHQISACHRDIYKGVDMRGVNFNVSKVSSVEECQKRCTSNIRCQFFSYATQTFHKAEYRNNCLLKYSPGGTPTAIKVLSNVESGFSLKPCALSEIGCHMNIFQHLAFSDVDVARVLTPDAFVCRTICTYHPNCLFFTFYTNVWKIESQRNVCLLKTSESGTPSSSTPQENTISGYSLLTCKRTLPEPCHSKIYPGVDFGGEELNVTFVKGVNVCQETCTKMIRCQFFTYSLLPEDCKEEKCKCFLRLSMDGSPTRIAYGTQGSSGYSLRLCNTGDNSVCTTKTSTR
Sequence of Plasma Kallikrein (P03952 391-638): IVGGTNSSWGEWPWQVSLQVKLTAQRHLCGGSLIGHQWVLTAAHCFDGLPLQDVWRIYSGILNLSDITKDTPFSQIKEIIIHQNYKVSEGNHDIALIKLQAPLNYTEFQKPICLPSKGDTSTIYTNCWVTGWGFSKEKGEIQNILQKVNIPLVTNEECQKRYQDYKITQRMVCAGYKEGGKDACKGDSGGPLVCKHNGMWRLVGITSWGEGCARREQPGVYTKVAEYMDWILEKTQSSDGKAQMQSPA
Sequence of Cathepsin G (P08311 21-244): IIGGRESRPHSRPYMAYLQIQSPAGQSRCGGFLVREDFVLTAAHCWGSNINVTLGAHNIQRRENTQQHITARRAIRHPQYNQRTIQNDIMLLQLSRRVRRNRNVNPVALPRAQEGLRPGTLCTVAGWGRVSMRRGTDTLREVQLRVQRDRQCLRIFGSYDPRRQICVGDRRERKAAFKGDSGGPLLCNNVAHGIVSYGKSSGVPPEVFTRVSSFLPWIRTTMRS
Sequence of Chymase (P23946 22-247): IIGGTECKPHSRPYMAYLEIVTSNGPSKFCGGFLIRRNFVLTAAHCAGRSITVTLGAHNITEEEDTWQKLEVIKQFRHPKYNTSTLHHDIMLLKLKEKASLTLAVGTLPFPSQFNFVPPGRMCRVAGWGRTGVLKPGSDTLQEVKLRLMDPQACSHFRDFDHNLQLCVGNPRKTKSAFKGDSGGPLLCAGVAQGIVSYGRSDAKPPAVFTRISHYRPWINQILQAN
Sequence of Papain (P00784 134-345): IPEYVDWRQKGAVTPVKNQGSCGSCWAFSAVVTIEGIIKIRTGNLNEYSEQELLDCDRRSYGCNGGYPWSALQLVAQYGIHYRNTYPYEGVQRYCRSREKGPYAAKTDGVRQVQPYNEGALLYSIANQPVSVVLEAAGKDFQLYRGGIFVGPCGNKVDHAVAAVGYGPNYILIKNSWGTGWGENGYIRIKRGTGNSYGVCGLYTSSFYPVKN
Sequence of Kallikrein 7 (P49862 30-252): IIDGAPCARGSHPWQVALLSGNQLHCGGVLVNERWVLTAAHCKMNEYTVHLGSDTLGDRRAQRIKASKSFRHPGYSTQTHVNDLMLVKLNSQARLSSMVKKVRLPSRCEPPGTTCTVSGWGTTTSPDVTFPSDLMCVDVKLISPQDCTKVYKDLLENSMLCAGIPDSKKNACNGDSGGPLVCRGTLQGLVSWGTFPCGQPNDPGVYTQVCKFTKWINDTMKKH
Sequence of Caspase 1 (P29466 120-404): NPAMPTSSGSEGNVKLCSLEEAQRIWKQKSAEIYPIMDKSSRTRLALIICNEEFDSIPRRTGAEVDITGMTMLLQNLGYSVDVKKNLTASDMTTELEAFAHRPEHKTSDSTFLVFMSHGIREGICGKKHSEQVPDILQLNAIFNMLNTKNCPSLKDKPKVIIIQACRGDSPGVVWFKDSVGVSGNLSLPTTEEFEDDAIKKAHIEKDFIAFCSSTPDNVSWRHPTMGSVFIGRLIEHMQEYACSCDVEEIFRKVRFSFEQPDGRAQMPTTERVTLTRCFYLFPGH

CC(C)C[C@H](NC(=O)[C@@H](NC(=O)N[C@@H](Cc1ccccc1)C(=O)O)[C@@H]1CCN=C(N)N1)C(=O)N[C@H](C=O)Cc1ccccc1 [Chymostatin]
IC50 (Cathepsin G): 236 nM | IC50 (Chymase): 19.9 nM

Cc1nc2c([nH]1)-c1ccccc1N(C(=O)c1ccc(NC(=O)c3ccccc3-c3ccccc3)cc1)CC2 [Conivaptan]
V2/Vla selectivity index (V2R versus V1a): 0.15

CC(=O)N[C@@H](CC(=O)O)C(=O)N[C@@H](CCC(=O)O)C(=O)N[C@H](C(=O)N[C@H](C=O)CC(=O)O)C(C)C [DEVD-CHO]
IC50 (Caspase 6; read-out: Compound IC50): 26.5 nM | IC50 (Caspase 7): 5.11 nM

CC(C)C[C@H](NC(=O)[C@H]1O[C@@H]1C(=O)O)C(=O)NCCCCN=C(N)N [E64]
IC50 (Cathepsin B): 5.1 nM | IC50 (Cathepsin C; read-out: Compound IC50): 590 nM | IC50 (Cathepsin H): 67.1 nM | IC50 (Cathepsin L): 1.96 nM | IC50 (Cathepsin S): 5.43 nM | IC50 (Cathepsin V): 19.7 nM | IC50 (Papain; read-out: Compound IC50): 0.118 nM

CC[C@H](C)[C@H](NC(C)=O)C(=O)N[C@@H](CCC(=O)O)C(=O)N[C@H](C(=O)N[C@H](C=O)CC(=O)O)[C@@H](C)O [IETD-CHO] (Ac-IETD-aldehyde)
IC50 (Caspase 1; read-out: Compound IC50): 89.3 nM | IC50 (Caspase 2; read-out: Compound IC50): 646 nM | IC50 (Caspase 4): 2180 nM | IC50 (Caspase 5; read-out: Compound IC50): 38.3 nM | IC50 (Caspase 8): 2.52 nM | IC50 (Caspase 9; read-out: Compound IC50): 51.5 nM | IC50 (Caspase 10; read-out: Compound IC50): 28.3 nM | IC50 (Caspase 11; read-out: Compound IC50): 934 nM

CC(=O)N[C@@H](CC(C)C)C(=O)N[C@@H](CC(C)C)C(=O)N[C@H](C=O)CCCNC(=N)N [Leupeptin]
IC50 (Kallikrein 1): 296 nM | IC50 (Proteinase A): 31500 nM

CCOc1ccc2c(c1)C1(CCC(OCCN3CCOCC3)CC1)C(=O)N2S(=O)(=O)c1ccc(C(=O)NC(C)(C)C)cc1OC (stereo not drawn) [Satavaptan]
V2/Vla selectivity index (V2R versus V1a): 112

CC[C@H](C)[C@@H]1NC(=O)[C@H]([C@@H](C)O)NC(=O)[C@H](CO)NC(=O)[C@H](Cc2ccccc2)NC(=O)[C@H](CCCNC(=N)N)NC(=O)[C@H](CC(N)=O)NC(=O)[C@H](C)NC(=O)[C@H](CC(N)=O)NC(=O)CNC(=O)[C@H](CCCCN)NC(=O)[C@@H]2CSSC[C@@H]3NC(=O)[C@@H]4CCCN4C(=O)CNC(=O)[C@@H]4CCCN4C(=O)[C@H](CCCCN)NC(=O)[C@H](C(C)C)NC(=O)[C@@H]4CCCN4C(=O)[C@H](CC(C)C)NC(=O)[C@H](CC(N)=O)NC(=O)[C@@H](NC(=O)[C@H](Cc4ccccc4)NC(=O)[C@H](CO)NC(=O)[C@@H]4CCCN4C(=O)[C@@H](N)CCCNC(=N)N)CSSC[C@@H](C(=O)N[C@H](C(=O)NCC(=O)O)C(C)C)NC(=O)[C@H]([C@@H](C)O)NC(=O)[C@H](CCCNC(=N)N)NC(=O)[C@H](CCCNC(=N)N)NC(=O)[C@H](CSSC[C@H](NC(=O)[C@H](CCCCN)NC(=O)[C@H](CC(N)=O)NC(=O)[C@H]([C@@H](C)O)NC(=O)[C@H](CCCCN)NC(=O)[C@H](CCC(N)=O)NC(=O)[C@H](CO)NC(=O)[C@H](Cc4ccc(O)cc4)NC(=O)[C@H](Cc4ccc(O)cc4)NC(=O)[C@H](Cc4ccccc4)NC(=O)[C@H](C)NC(=O)[C@H](CO)NC(=O)[C@H](Cc4ccccc4)NC(=O)[C@H](Cc4ccccc4)NC(=O)CNC(=O)[C@H](CC(N)=O)NC3=O)C(=O)N[C@@H](Cc3c[nH]cn3)C(=O)N[C@@H](CO)C(=O)N[C@@H](Cc3ccccc3)C(=O)N[C@@H]([C@@H](C)O)C(=O)N[C@@H](Cc3ccc(O)cc3)C(=O)NCC(=O)NCC(=O)N2)NC(=O)[C@H](CCCCN)NC(=O)[C@H](CCC(=O)O)NC1=O [WT MQ1 peptide, mambaquaretin]
IC50 [1]: 192 nM | IC50 (Caspase 1): 37100 nM | IC50 (Caspase 2): 42500 nM | IC50 (Caspase 5): > 50000 nM | IC50 (Caspase 6): > 50000 nM | IC50 (Caspase 9): 8940 nM | IC50 (Caspase 10): 9330 nM | IC50 (Caspase 11): 14000 nM | IC50 (Cathepsin C): 45900 nM | IC50 (Cathepsin G): 8540 nM | IC50 (Chymase): 18200 nM | IC50 (Chymotrypsin): 2740 nM | IC50 (Elastase): > 50000 nM | IC50 (Kallikrein 5): 5770 nM | IC50 (Kallikrein 7): 3650 nM | IC50 (Matriptase 2): 116 nM | IC50 (Papain): 17600 nM | IC50 (Plasma Kallikrein): 3890 nM | IC50 (Trypsin): 3690 nM | IC50 (Tryptase b2): 3630 nM | IC50 (Tryptase g1): > 50000 nM | affinity for 156 other GPCRs [2]: no affinity at μM concentrations

Cc1ccccc1C(=O)Nc1ccc(C(=O)N2CCCC(O)c3cc(Cl)ccc32)c(C)c1 (stereo not drawn) [tolvaptan]
plasmatic sodium concentration versus vehicle-treated group [3]: significantly different from values on the vehicle-treated group

Gabexate mesylate [Gabexate mesylate (GM)]
IC50 (Elastase; read-out: Compound IC50): 216 nM | IC50 (FXa): 4470 nM | IC50 (Kallikrein 5; read-out: Compound IC50): 697 nM | IC50 (Kallikrein 7; read-out: Compound IC50): 46500 nM | IC50 (Kallikrein 12): 65.4 nM | IC50 (Kallikrein 13): 11800 nM | IC50 (Kallikrein 14): 672 nM | IC50 (Matriptase 2; read-out: Compound IC50): 315 nM | IC50 (Plasma Kallikrein; read-out: Compound IC50): 30.3 nM | IC50 (Plasmin): 344 nM | IC50 (Thrombin A): 3160 nM | IC50 (Trypsin; read-out: Compound IC50): 11.2 nM | IC50 (Tryptase b2; read-out: Compound IC50): 19.8 nM | IC50 (Tryptase g1): 10.1 nM | IC50 (Urokinase): 614 nM

RPSFCNLPVAPGPCNGFFSAFYYSQKTNKCHSFTYGGCKGNANRFSTLEKCRRTCVG (disulfide 5-55, 14-38, 30-51) [K10A]
Ki [4]: 9.38 nM

RPSFCNLPVEPGPCNGFFSAFYYSQKTNKCHSFTYGGCKGNANRFSTLEKCRRTCVG (disulfide 5-55, 14-38, 30-51) [K10E]
Ki [4]: 337 nM

RPSFCNLPVKPGPCNGFFSAFYYSQKTNKCHSFTYGGCKGAANRFSTIEKCRRTCVG (disulfide 5-55, 14-38, 30-51) [N41A]
Ki [4]: 8.49 nM

RPSFCNLPVKPGPCNGFFSAFYYSQKTNKCHSFTYGGCKGNANAFSTLEKCRRTCVG (disulfide 5-55, 14-38, 30-51) [R44A]
Ki [4]: 13.3 nM

RPSFCNLPVKPGPCNGFFSAFYYSQKTNKCHSFTYGGCKGNANEFSTLEKCRRTCVG (disulfide 5-55, 14-38, 30-51) [R44E]
Ki [4]: 99.3 nM
